Test results: patent US8999925B2 (priority 2013, dated 2015)

How the values were obtained:
Tamiami virus (TAMV) = format: cell-based
[1] = tested on: pseudotyped VSV expressing LASV GPC (VSVΔLASV); format: cell-based
measles virus (MV) = format: cell-based
R18-labeled PICV = format: biochemical
[2] = tested on: POPC LUVs or purified PICV
PICV = format: cell-based
[3] = tested on: vesicular stomatitis virus (VSV); format: cell-based
[4] = tested on: herpes simplex virus-1 (HSV-1, McIntyre strain); format: cell-based

Molecule	plaque reduction (Tamiami virus (TAMV)) [%]	plaque reduction [1] [%]	inhibition of plaque formation (measles virus (MV))	dequenching of PICV pre-incubated at pH 5.0 prior to labeling (R18-labeled PICV; pH 5)	dequenching of R18-labeled virus (R18-labeled PICV; pH 7.4)	presence of pre-fusion glycoprotein spikes (cryo-EM) (Purified PICV)	size distribution of viral particles (cryo-EM) (Purified PICV)	DPH anisotropy [2]	TMA-DPH anisotropy [2]	effect on viral infectivity (PICV)	effect on viral infectivity (plaque number) (PICV)	peptide concentration giving complete inhibition of plaque formation (PICV (CoAn 3739))	IC50 (PICV (CoAn 3739); 1 h) [µM]	inhibition of plaque formation [3]	inhibition of plaque formation [4]
CC[C@H](C)[C@H](NC(=O)[C@H](CC(C)C)NC(=O)CNC(=O)[C@H](CC(N)=O)NC(=O)[C@@H](NC(=O)[C@@H](NC(=O)[C@H](CCCCN)NC(=O)[C@H](CCCCN)NC(=O)[C@H](Cc1ccccc1)NC(=O)[C@H](CC(C)C)NC(=O)[C@H](CC(N)=O)NC(=O)[C@@H](N)CC(C)C)[C@@H](C)O)[C@@H](C)CC)C(=O)N[C@@H](CO)C(=O)N[C@@H](CC(=O)O)C(=O)N[C@@H](CO)C(=O)N[C@@H](CC(C)C)C(=O)N[C@H](C(=O)N[C@H](C(=O)N[C@@H](CCCNC(=N)N)C(=O)O)[C@@H](C)CC)C(C)C [Peptide 1]	45.0±5.0	63.8±13.0	not significantly inhibited	did not induce significant dequenching	extensive dequenching	Disappearance of pre-fusion glycoprotein spikes was also observed in a significant number of particles	greater shift toward larger particles	Concentration-dependent increases in probe anisotropy values were observed to a greater degree with Peptide 1 than with Peptide 8	increased substantially	no significant antiviral activity or increase in viral infectivity was observed	no increase in plaque number was observed	approximately 20 μM	7.05 ± 2.19	not significantly inhibited	not significantly inhibited
PGGYALEQWAIIWAGIKAF [Peptide 8]								purely incidental alterations in acyl chain packing							
